# Measured values taken from ChEMBL document CHEMBL4765299 (Eur J Med Chem, 2020).
# Columns and labels:
# [1] = tested on: K562; assay: Induction of cell cycle arrest in human K562 cells assessed as accumulation at G2/M phase at 10 nM incubated for 48 hrs by propidium iodide/RNase staining based flow cytometry (reference value: 7.7%); assay type: functional
# [2] = (§1) against A against n against t against i against p against r against o against l against i against f against e against r against a against t against i against v against e against a against c against t against i against v against i against t against y against a against g against a against i against n against s against t against h against u against m against a against n against K against 5 against 6 against 2 against c against e against l against l against s against a against s against s against e against s against s against e against d against a against s against r against e against d against u against c against t against i against o against n against i against n against c against e against l against l against v against i against a against b against i against l against i against t against y against m against e against a against s against u against r against e against d against a against f against t against e against r against 7 against 2 against h against r against s against b against y against M against T against T against a against s against s against a against y against; assay type: functional, tissue-based, Homo sapiens; conditions: k562
# [3] = tested on: K562; assay: Induction of mitochondrial membrane potential depolarization in human K562 cells assessed proportion of cells with collapsed MMP at 5 nM measured after 48 hrs by JC-1 staining based flow cytometry (reference value: 1.57%); assay type: functional
# [4] = Toxicity in ICR mouse allografted with mouse H22 cells assessed as lung morphological changes at 30 mg/kg, iv administered daily for 21 days by hematoxylin and eosin staining based microscopic analysis; assay type: organism-based; conditions: in vivo, 504 h, dose 30 mg/kg/day, time 21 day
# [5] = tested on: K562; assay: Induction of mitochondrial membrane potential depolarization in human K562 cells measured after 48 hrs by JC-1 staining based flow cytometry; assay type: functional, cell-based; conditions: dose 5-20 nM
# [6] = Toxicity in ICR mouse allografted with mouse H22 cells assessed as spleen morphological changes at 30 mg/kg, iv administered daily for 21 days by hematoxylin and eosin staining based microscopic analysis; assay type: organism-based; conditions: in vivo, 504 h, dose 30 mg/kg/day, time 21 day
# [7] = tested on: K562; assay: Induction of apoptosis in human K562 cells assessed as early apoptotic cells at 20 nM incubated for 48 hrs by AnnexinV-FITC/propidium iodide staining based flow cytometry analysis (reference value: 1.47%); assay type: functional
# [8] = Toxicity in ICR mouse allografted with mouse H22 cells assessed as heart morphological changes at 30 mg/kg, iv administered daily for 21 days by hematoxylin and eosin staining based microscopic analysis; assay type: organism-based; conditions: in vivo, 504 h, dose 30 mg/kg/day, time 21 day
# [9] = tested on: HepG2; assay: Antiproliferative against human HepG2 cells assessed as reduction in cell viability measured after 72 hrs by MTT assay; assay type: functional, cell-based; conditions: HepG2, 72 h
# [10] = tested on: H22; assay: Anti-tumor activity against mouse H22 cells allografted in iv dosed ICR mice assessed as reduction in tumor weight administered daily for 21 days; assay type: functional, organism-based; conditions: dose 15-30 mg/kg/day, time 21.0 day
# [11] = tested on: H22; assay: Anti-tumor activity against mouse H22 cells allografted in ICR mice assessed as reduction in tumor weight at 30 mg/kg, iv administered daily for 21 days; assay type: functional; conditions: 504 h, time 21 day
# [12] = as §1, with “n against H against C” for “n against K against 5”, “H against C against T” for “K against 5 against 6”, “C against T against -” for “5 against 6 against 2”, “T against - against 8 against c” for “6 against 2 against c”; assay type: functional, tissue-based, Homo sapiens; conditions: hct-8
# [13] = tested on: K562; assay: Induction of apoptosis in human K562 cells assessed as late apoptotic cells at 5 nM incubated for 48 hrs by AnnexinV-FITC/propidium iodide staining based flow cytometry analysis (reference value: 1.78%); assay type: functional
# [14] = tested on: K562; assay: Induction of mitochondrial membrane potential depolarization in human K562 cells assessed proportion of cells with collapsed MMP at 10 nM measured after 48 hrs by JC-1 staining based flow cytometry (reference value: 1.57%); assay type: functional
# [15] = tested on: K562; assay: Induction of cell cycle arrest in human K562 cells assessed as accumulation at S phase at 5 nM incubated for 48 hrs by propidium iodide/RNase staining based flow cytometry (reference value: 53.48%); assay type: functional
# [16] = Inhibition of porcine brain tubulin polymerization assessed as inhibition of microtubule assembly by measuring decrease in absorbance measured for 60 mins by fluorescence based analysis; assay type: tissue-based, Sus scrofa
# [17] = tested on: K562; assay: Induction of cell cycle arrest in human K562 cells assessed as accumulation at G1 phase at 20 nM incubated for 48 hrs by propidium iodide/RNase staining based flow cytometry (reference value: 38.83%); assay type: functional
# [18] = tested on: K562; assay: Induction of cell cycle arrest in human K562 cells assessed as accumulation at G2/M phase at 5 nM incubated for 48 hrs by propidium iodide/RNase staining based flow cytometry (reference value: 7.7%); assay type: functional
structure (smiles),measurement,setting,value
C=C(c1cc(Cl)nc(NC)c1)c1ccc(OC)c(O)c1,Activity,[1],11.54%
same,IC50,[2],0.01 µM
same,Activity,[3],13.44%
same,Activity,[4],Non-Toxic
same,Activity,[5],Dose-dependent effect
same,Activity,[6],Non-Toxic
same,Activity,[7],43.83%
same,Activity,[8],Non-Toxic
same,IC50,[9],0.019 µM
same,Activity,[10],Dose-dependent effect
same,inhibition in vivo at 30 mg/kg/day,[11],68.7%
same,IC50,[12],0.021 µM
same,Activity,[13],3.86%
same,Activity,[14],20.05%
same,Activity,[15],50.66%
same,IC50,[16],3.15 µM
same,Activity,[17],36.65%
same,Activity,[18],9.4%
